Measurements published in patent US5658942A, “Octahydronaphthalene oxime compounds for cholesterol synthesis inhibition” (Sankyo Company, Limited, priority 1987, dated 1997).

Biological target: T1, 3-hydroxy-3-methyl-glutaryl CoA reductase (Rattus norvegicus, UniProt P51639)
T1 construct: from tissue; host or cells: enzyme system separated from an experimental animal
T1 sequence (P51639 1-887): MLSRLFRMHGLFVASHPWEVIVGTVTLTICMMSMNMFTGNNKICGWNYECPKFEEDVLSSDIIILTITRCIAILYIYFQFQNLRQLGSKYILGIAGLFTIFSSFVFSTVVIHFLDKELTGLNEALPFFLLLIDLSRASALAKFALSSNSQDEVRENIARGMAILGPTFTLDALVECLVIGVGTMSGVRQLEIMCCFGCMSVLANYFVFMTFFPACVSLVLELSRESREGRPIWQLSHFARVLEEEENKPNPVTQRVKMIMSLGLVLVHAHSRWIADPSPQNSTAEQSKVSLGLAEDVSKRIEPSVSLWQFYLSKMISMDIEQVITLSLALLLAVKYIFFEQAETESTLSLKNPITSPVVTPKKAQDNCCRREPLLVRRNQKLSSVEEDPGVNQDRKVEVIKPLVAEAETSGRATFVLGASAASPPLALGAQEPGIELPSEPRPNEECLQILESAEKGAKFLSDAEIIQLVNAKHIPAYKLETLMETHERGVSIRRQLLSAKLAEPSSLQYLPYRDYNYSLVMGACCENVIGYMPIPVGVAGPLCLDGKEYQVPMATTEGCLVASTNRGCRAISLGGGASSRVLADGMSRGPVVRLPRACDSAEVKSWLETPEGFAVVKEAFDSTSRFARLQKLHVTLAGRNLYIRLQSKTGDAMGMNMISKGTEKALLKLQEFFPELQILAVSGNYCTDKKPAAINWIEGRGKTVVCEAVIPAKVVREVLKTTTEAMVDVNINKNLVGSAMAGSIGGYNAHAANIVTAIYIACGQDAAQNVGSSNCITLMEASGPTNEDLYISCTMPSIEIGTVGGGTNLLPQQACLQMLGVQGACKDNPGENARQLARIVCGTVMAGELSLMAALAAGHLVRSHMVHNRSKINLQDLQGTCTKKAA
Experiment: inhibition of 3-hydroxy-3-methyl-glutaryl CoA reductase (method of Kuroda et al.)
Format: biochemical
Conditions: read-out: IC50 (concentration to achieve 50% inhibition of 3-hydroxy-3-methyl-glutaryl CoA reductase)
Source text: The compounds of the present invention have a marked ability to reduce the levels of serum cholesterol. Specifically, the biosynthesis of chlolesterol in an enzyme system or a culture cell system separated from an experimental animal is inhibited through competition with the rate limiting enzyme of 3-hydroxy-3-methylglutaryl-CoA reductase. […] The determination of the inhibitory activity of the compounds was made using the method of Kuroda et al ["Biochimica et Biophysica Acta" Vol. 486, pp. 70-81(1977)] which is a modification of the known method of D. J. Shapiro et al ["Analytical Biochemistry" Vol. 31, pp. 383-390(1969)] with some improvements.
The results are shown in Table 2, in which IC50 is the concentration to achieve 50% inhibition of 3-hydroxy-3-methyl-glutaryl CoA reductase (nM).

| IC50 | SMILES |
| --- | --- |
| 35.7 nM | CCC(C)C(=O)OC1CCC(=NO)C2=CC(=O)C(C)C(CCC(O)CC(O)CC(=O)O)C21 (stereo not shown) [Compound A, Sodium 1-(2-methylbutyryl)-3,4-dihydro-6-oxo-4-hydroxyiminoiso-ML-236A carboxylate, reference compound] |
| 39.5 nM | CCC(C)C(=O)OC1CCC(=NOC)C2=CC(=O)C(C)C(CCC(O)CC(O)CC(=O)O)C21 (stereo not shown) [Compound B, Sodium 1-(2-methylbutyryl)-3,4-dihydro-6-oxo-4-methoxyiminoiso-ML-236A carboxylate, reference compound] |
| 33.1 nM | CCC(C)C(=O)OC1CCC(=NOCc2ccccc2)C2=CC(=O)C(C)C(CCC(O)CC(O)CC(=O)OCc3ccccc3)C21 (stereo not shown) [Example 1(c), Benzyl-(2-methylbutyryl)-3,4-dihydro-6-oxo-4-benzyl-oxyiminoiso-ML-236A carboxylate] |
| 26.5 nM | CCC(C)C(=O)OC1CCC(=NOCc2ccc(F)cc2)C2=CC(=O)C(C)C(CCC(O)CC(O)CC(=O)O)C21 (stereo not shown) [Example 3b, Sodium 1-(2-methylbutyryl)-3,4-dihydro-6-oxo-4-(4-fluorobenzyl)oxyiminoiso-ML-236A Carboxylate] |
| 21 nM | CCC(C)C(=O)OC1CCC(=NOCc2ccc([N+](=O)[O-])cc2)C2=CC(=O)C(C)C(CCC(O)CC(O)CC(=O)O)C21 (stereo not shown) [Example 4b, Sodium 1-(2-methylbutyryl)-3,4-dihydro-6-oxo-4-(4-nitrobenzyl)oxyiminoiso-ML-236ACarboxylate] |
| 18.4 nM | CCC(C)C(=O)OC1CCC(=NOCc2ccccc2CO)C2=CC(=O)C(C)C(CCC(O)CC(O)CC(=O)O)C21 (stereo not shown) [Example 6b, Sodium 1-(2-methylbutyryl)-3,4-dihydro-6-oxo-4-(2-hydroxymethylbenzyl)oxyiminoiso-ML-236A Carboxylate] |
| 31.4 nM | CCC(C)C(=O)OC1CCC(=NOCc2cccnc2)C2=CC(=O)C(C)C(CCC(O)CC(O)CC(=O)O)C21 (stereo not shown) [Example 10b, Sodium 1-(2-methylbutyryl)-3,4-dihydro-6-oxo-4-(3-pyridylmethyl)oxyiminoiso-ML-236A Carboxylate] |
| 36 nM | CCC(C)C(=O)OC1CCC(=NOCc2ccco2)C2=CC(=O)C(C)C(CCC(O)CC(O)CC(=O)O)C21 (stereo not shown) [Example 11b, Sodium 1-(2-methylbutyryl)-3,4-dihydro-6-oxo-4-furfuryl-oxyiminoiso-ML-236ACarboxylate] |
| 21.3 nM | CCC(C)C(=O)OC1CCC(=NOCC=C(C)C)C2=CC(=O)C(C)C(CCC(O)CC(O)CC(=O)O)C21 (stereo not shown) [Example 17b, Sodium 1-(2-methylbutyryl)-3,4-dihydro-6-oxo-4-(3-methyl-2-butenyl)oxyiminoiso-ML-236A Carboxylate] |

Test system: serum cholesterol
Experiment: not given
Conditions: animals; J. Antibiotics 29, 1346 (1976); cited from earlier work

| SMILES | reduction of serum cholesterol levels |
| --- | --- |
| CC1C=CC2=CCCC(O)C2C1CCC1CC(O)CC(=O)O1 (stereo not shown) [ML-236A] | significantly reduce |
| CCC(C)C(=O)OC1CCC=C2C=CC(C)C(CCC3CC(O)CC(=O)O3)C21 (stereo not shown) [ML-236B] | significantly reduce |

Test system: 3-hydroxy-3-methylglutaryl-coenzyme A reductase
Experiment: not given
Conditions: enzymes or cultured cells from experimental animals; competing with HMG-CoA reductase; cited from earlier work

| SMILES | inhibition of the biosynthesis of cholesterol |
| --- | --- |
| CC1C=CC2=CCCC(O)C2C1CCC1CC(O)CC(=O)O1 (stereo not shown) [ML-236A] | inhibit the biosynthesis of cholesterol |
| CCC(C)C(=O)OC1CCC=C2C=CC(C)C(CCC3CC(O)CC(=O)O3)C21 (stereo not shown) [ML-236B] | inhibit the biosynthesis of cholesterol |
